According to the kinase profiling compilation of Christmann-Franck et al. (2016):

How the values were obtained:
Assay in all cases: radiometric filter-binding kinase assay, Kinase HotSpot
Conditions in all cases: compound 0.5 µM; ATP 10 µM
[1] = tested on: SGK1 (human), O00141 [S422D]
[2] = target: IKBKE (human) (UniProt Q14164)
[3] = target: EPHB3 (human) (UniProt P54753)
[4] = target: MINK1 (human) (UniProt Q8N4C8)
[5] = target: DYRK4 (human) (UniProt Q9NR20)
[6] = target: MAP3K7 TAB1 (human) (UniProt O43318+Q15750)
[7] = target: CLK1 (human) (UniProt P49759)
[8] = target: MAP3K3 (human) (UniProt Q99759)
[9] = target: MARK3 (human) (UniProt P27448)
[10] = target: CDK4 CCND1 (human) (UniProt P24385+P11802)
[11] = target: PRKCA (human) (UniProt P17252)
[12] = target: EPHA5 (human) (UniProt P54756)
[13] = target: SLK (human) (UniProt Q9H2G2)
[14] = target: STK16 (human) (UniProt O75716)
[15] = target: PRKCH (human) (UniProt P24723)
[16] = target: EPHB1 (human) (UniProt P54762)
[17] = target: PLK3 (human) (UniProt Q9H4B4)
[18] = target: CDK5 CDK5R1 p25 (human) (UniProt Q00535+Q15078)
[19] = target: PRKX (human) (UniProt P51817)
[20] = target: PTK6 (human) (UniProt Q13882)
[21] = target: PIM1 (human) (UniProt P11309)
[22] = target: PRKCB2 (human) (UniProt P05771)
[23] = target: MAP2K2 (human) (UniProt P36507)
[24] = target: TBK1 (human) (UniProt Q9UHD2)
[25] = target: HIPK2 (human) (UniProt Q9H2X6)
[26] = target: MAPK10 (human) (UniProt P53779)
[27] = target: TTK (human) (UniProt P33981)
[28] = target: AURKB (human) (UniProt Q96GD4)
[29] = target: ACVR1 (human) (UniProt Q04771)
[30] = target: CAMK1 (human) (UniProt Q14012)
[31] = target: SRPK3 (human) (UniProt Q9UPE1)
[32] = target: MAP4K4 (human) (UniProt O95819)
[33] = target: TYRO3 (human) (UniProt Q06418)
[34] = target: CSNK1G2 (human) (UniProt P78368)
[35] = target: JAK3 JH1 JH2 (human) (UniProt P52333)
[36] = target: MAP3K2 (human) (UniProt Q9Y2U5)
[37] = target: TEC (human) (UniProt P42680)
[38] = target: ACVRL1 (human) (UniProt P37023)
[39] = target: MAP4K5 (human) (UniProt Q9Y4K4)
[40] = target: SRPK1 (human) (UniProt Q96SB4)
[41] = target: MAP3K14 (human) (UniProt Q99558)
[42] = target: WNK3 (human) (UniProt Q9BYP7)

Chain of MAPK10 (human) (P53779 whole entry, looked up): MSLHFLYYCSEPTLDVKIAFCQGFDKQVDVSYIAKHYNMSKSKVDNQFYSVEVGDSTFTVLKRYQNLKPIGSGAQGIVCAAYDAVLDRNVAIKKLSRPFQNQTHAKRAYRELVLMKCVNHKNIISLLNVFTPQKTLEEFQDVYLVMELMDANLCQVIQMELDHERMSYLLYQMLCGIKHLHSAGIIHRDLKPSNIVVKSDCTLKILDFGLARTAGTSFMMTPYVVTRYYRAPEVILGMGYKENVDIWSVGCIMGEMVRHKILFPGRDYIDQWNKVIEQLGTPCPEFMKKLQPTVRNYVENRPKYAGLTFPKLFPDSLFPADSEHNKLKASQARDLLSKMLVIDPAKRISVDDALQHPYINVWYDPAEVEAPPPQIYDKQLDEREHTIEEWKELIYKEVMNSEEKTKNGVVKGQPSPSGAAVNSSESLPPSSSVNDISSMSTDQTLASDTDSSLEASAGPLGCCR
Chain of TYRO3 (human) (Q06418 whole entry, looked up): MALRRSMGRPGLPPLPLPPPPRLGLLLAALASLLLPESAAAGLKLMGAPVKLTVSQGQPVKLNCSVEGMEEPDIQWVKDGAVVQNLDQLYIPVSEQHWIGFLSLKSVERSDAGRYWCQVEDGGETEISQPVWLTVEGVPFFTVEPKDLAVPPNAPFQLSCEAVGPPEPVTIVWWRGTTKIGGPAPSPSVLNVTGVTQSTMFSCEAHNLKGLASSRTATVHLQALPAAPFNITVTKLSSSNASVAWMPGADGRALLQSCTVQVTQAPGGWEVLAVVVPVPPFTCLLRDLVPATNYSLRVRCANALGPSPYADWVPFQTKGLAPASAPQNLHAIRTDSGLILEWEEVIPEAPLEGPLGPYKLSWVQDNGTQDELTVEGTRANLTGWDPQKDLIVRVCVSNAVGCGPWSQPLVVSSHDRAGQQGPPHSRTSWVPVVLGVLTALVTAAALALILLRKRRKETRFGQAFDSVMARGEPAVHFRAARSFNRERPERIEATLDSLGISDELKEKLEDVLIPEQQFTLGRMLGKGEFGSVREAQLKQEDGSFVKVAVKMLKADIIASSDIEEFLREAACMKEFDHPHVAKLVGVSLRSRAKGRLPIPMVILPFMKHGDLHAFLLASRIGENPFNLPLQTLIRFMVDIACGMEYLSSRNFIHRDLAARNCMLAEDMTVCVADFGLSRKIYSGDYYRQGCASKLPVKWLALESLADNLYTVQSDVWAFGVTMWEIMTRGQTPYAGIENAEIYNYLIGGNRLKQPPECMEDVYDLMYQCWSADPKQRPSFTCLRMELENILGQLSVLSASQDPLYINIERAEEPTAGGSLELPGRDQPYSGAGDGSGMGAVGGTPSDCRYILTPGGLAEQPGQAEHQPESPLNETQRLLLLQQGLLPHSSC
Chain of CDK5 CDK5R1 p25 (human) (Q00535 whole entry, looked up): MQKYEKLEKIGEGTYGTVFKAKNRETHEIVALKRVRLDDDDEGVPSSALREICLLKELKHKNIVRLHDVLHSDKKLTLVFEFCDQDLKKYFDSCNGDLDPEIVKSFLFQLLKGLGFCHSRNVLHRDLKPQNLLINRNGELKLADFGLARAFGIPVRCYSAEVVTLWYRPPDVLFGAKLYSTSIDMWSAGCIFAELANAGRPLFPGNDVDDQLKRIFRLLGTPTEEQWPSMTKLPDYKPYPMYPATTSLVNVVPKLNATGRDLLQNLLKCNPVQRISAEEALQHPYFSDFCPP
Chain of CDK5 CDK5R1 p25 (human) (Q15078 whole entry, looked up): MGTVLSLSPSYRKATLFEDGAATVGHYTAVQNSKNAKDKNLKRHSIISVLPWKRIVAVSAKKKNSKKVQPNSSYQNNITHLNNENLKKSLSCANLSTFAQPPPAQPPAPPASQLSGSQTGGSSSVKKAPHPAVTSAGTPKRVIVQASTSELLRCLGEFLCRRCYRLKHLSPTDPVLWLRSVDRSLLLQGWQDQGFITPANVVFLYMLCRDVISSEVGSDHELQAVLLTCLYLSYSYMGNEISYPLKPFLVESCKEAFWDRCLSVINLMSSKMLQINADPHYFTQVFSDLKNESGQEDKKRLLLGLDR
Chain of EPHA5 (human) (P54756 whole entry, looked up): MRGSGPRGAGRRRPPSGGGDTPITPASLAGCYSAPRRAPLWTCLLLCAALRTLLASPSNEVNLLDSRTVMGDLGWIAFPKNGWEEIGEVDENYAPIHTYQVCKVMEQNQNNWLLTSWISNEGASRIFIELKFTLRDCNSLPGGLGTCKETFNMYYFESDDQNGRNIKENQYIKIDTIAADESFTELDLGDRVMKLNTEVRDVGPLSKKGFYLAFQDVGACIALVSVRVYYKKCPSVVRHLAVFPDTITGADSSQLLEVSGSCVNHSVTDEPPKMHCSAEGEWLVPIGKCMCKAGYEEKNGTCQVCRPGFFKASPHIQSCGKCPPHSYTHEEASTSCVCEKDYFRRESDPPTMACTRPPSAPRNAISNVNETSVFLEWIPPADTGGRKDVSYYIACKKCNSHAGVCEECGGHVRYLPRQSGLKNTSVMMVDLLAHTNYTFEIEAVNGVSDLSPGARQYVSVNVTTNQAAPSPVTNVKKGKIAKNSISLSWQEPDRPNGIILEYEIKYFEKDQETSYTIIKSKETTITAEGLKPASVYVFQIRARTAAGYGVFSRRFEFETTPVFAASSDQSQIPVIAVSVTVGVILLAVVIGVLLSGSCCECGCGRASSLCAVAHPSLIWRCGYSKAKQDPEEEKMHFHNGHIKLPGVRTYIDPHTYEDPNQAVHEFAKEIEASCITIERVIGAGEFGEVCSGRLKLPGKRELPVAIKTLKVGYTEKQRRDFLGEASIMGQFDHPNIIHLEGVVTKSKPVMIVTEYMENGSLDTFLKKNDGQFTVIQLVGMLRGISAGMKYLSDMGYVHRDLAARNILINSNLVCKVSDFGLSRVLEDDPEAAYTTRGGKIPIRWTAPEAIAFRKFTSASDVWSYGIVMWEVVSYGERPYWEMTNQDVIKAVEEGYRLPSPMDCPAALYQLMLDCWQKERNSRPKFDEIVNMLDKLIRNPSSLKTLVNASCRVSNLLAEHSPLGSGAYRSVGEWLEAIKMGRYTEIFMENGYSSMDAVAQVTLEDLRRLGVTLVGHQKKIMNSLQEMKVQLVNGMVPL
Chain of MAP3K14 (human) (Q99558 whole entry, looked up): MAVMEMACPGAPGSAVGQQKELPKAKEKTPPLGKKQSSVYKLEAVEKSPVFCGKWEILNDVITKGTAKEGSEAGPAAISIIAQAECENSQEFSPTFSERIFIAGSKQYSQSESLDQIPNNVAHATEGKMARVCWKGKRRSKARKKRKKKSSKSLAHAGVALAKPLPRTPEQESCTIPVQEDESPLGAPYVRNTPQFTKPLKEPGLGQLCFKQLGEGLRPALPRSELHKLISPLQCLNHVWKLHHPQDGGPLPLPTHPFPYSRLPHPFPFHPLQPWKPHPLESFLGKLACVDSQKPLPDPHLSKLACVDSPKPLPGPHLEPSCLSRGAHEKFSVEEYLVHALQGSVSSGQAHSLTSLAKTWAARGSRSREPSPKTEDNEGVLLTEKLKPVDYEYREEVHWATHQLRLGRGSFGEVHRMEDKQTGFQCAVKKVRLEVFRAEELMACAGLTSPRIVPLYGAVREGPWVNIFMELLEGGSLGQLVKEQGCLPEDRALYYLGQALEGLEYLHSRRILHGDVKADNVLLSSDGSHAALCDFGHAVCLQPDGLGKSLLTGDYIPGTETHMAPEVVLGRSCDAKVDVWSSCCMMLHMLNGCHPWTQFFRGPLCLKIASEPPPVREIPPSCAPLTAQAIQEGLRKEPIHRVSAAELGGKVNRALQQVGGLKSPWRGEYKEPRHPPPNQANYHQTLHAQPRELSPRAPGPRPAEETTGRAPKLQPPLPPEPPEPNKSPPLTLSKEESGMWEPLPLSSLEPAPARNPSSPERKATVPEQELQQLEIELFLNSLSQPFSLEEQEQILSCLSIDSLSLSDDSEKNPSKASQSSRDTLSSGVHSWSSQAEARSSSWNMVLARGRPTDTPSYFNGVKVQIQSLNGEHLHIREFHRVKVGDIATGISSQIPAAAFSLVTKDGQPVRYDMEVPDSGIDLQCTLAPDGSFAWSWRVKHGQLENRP
Chain of IKBKE (human) (Q14164 whole entry, looked up): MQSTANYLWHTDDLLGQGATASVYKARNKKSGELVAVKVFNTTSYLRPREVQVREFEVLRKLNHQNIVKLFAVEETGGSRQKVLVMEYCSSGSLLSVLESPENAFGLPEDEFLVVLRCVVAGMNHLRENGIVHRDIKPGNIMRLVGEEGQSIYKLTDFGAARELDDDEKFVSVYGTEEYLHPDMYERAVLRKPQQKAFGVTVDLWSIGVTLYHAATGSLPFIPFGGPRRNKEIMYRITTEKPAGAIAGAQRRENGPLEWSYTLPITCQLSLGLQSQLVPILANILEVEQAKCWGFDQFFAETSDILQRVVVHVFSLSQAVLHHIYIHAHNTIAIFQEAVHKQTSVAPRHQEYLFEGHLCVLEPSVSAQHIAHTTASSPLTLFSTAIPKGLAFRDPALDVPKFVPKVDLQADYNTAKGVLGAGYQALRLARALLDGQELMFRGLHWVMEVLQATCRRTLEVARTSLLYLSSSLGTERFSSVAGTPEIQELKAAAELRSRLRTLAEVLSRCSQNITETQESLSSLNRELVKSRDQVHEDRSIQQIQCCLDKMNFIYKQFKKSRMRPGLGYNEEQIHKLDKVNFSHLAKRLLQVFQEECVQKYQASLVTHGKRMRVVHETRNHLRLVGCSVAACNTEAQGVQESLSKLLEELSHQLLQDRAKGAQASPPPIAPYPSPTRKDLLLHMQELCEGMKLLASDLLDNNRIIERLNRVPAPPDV
Chain of STK16 (human) (O75716 whole entry, looked up): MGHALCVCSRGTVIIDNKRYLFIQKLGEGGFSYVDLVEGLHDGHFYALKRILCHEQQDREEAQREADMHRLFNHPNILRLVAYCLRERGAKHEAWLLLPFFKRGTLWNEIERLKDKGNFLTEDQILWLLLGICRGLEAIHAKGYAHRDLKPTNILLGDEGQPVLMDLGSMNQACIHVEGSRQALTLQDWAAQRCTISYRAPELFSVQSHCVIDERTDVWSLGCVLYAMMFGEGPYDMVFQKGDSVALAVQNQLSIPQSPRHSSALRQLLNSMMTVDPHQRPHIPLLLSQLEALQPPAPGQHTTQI

## Cc1cc(Nc2nc(-c3ccccc3)nc3ccccc23)n[nH]1
[1]
  residual activity: 95.5%
[2]
  residual activity: 67.1%
[3]
  residual activity: 86.5%
[4]
  residual activity: 35.6%
[5]
  residual activity: 103%
[6]
  residual activity: 78.3%
[7]
  residual activity: 74%
[8]
  residual activity: 82.9%
[9]
  residual activity: 89%
[10]
  residual activity: 100%
[11]
  residual activity: 92.2%
[12]
  residual activity: 90.6%
[13]
  residual activity: 42.2%
[14]
  residual activity: 24.7%
[15]
  residual activity: 89.6%
[16]
  residual activity: 93.1%
[17]
  residual activity: 88.3%
[18]
  residual activity: 98.7%
[19]
  residual activity: 101%
[20]
  residual activity: 61.6%
[21]
  residual activity: 83.3%
[22]
  residual activity: 87.3%
[23]
  residual activity: 102%
[24]
  residual activity: 53.8%
[25]
  residual activity: 101%
[26]
  residual activity: 88.7%
[27]
  residual activity: 102%
[28]
  residual activity: 52%
[29]
  residual activity: 149%
[30]
  residual activity: 93.1%
[31]
  residual activity: 61.5%
[32]
  residual activity: 25.7%
[33]
  residual activity: 94.2%
[34]
  residual activity: 69.3%
[35]
  residual activity: 96.7%
[36]
  residual activity: 78.4%
[37]
  residual activity: 106%
[38]
  residual activity: 115%
[39]
  residual activity: 20.2%
[40]
  residual activity: 90.1%
[41]
  residual activity: 93.5%
[42]
  residual activity: 74.9%

## COc1cc2c(N3CCN(C(=O)Nc4ccc(OC(C)C)cc4)CC3)ncnc2cc1OCCCN1CCCCC1
[1]
  residual activity: 123%
[2]
  residual activity: 96.2%
[3]
  residual activity: 84.2%
[4]
  residual activity: 99%
[5]
  residual activity: 101%
[6]
  residual activity: 91.8%
[7]
  residual activity: 72.4%
[8]
  residual activity: 106%
[9]
  residual activity: 103%
[10]
  residual activity: 92.5%
[11]
  residual activity: 109%
[12]
  residual activity: 104%
[13]
  residual activity: 94.6%
[14]
  residual activity: 103%
[15]
  residual activity: 108%
[16]
  residual activity: 96.6%
[17]
  residual activity: 99.3%
[18]
  residual activity: 104%
[19]
  residual activity: 108%
[20]
  residual activity: 92.9%
[21]
  residual activity: 97.8%
[22]
  residual activity: 93.1%
[23]
  residual activity: 116%
[24]
  residual activity: 97.2%
[25]
  residual activity: 91.8%
[26]
  residual activity: 94.6%
[27]
  residual activity: 100%
[28]
  residual activity: 89.6%
[29]
  residual activity: 145%
[30]
  residual activity: 101%
[31]
  residual activity: 102%
[32]
  residual activity: 96.6%
[33]
  residual activity: 101%
[34]
  residual activity: 95.5%
[35]
  residual activity: 99.8%
[36]
  residual activity: 103%
[37]
  residual activity: 89%
[38]
  residual activity: 102%
[39]
  residual activity: 87.6%
[40]
  residual activity: 98.2%
[41]
  residual activity: 98.6%
[42]
  residual activity: 102%

## CCOc1cc2ncnc(Nc3cccc(Br)c3)c2cc1OCC
[1]
  residual activity: 120%
[2]
  residual activity: 98.7%
[3]
  residual activity: 99.7%
[4]
  residual activity: 77.8%
[5]
  residual activity: 96.9%
[6]
  residual activity: 102%
[7]
  residual activity: 97.2%
[8]
  residual activity: 92.9%
[9]
  residual activity: 98.8%
[10]
  residual activity: 94.2%
[11]
  residual activity: 85.3%
[12]
  residual activity: 69.5%
[13]
  residual activity: 64.8%
[14]
  residual activity: 98.4%
[15]
  residual activity: 94.9%
[16]
  residual activity: 73.8%
[17]
  residual activity: 97.1%
[18]
  residual activity: 89.5%
[19]
  residual activity: 99.8%
[20]
  residual activity: 27.7%
[21]
  residual activity: 92.1%
[22]
  residual activity: 98.6%
[23]
  residual activity: 95.5%
[24]
  residual activity: 85.4%
[25]
  residual activity: 96.8%
[26]
  residual activity: 101%
[27]
  residual activity: 91.2%
[28]
  residual activity: 91.9%
[29]
  residual activity: 97.1%
[30]
  residual activity: 79.9%
[31]
  residual activity: 93.5%
[32]
  residual activity: 67%
[33]
  residual activity: 92.2%
[34]
  residual activity: 103%
[35]
  residual activity: 102%
[36]
  residual activity: 102%
[37]
  residual activity: 120%
[38]
  residual activity: 103%
[39]
  residual activity: 47.7%
[40]
  residual activity: 102%
[41]
  residual activity: 93.4%
[42]
  residual activity: 96.5%
